From patent US7635686B2, “Therapeutically useful triethyleneglycol cholesteryl oligonucleotides” (Bioniche Life Sciences, Inc., priority 2001, dated 2009)
{TEG-Chol} = cholesteryl attached through a triethylene glycol (TEG) linker

Experiments:
EL-4 cells [1] = assay: Cleavage of poly(ADP-ribose) polymerase in EL-4 cells (FITC-antibody flow cytometry); type: cell-based, murine; conditions: 53 μM, 72 h; for Percentage of cells containing cleaved PARP: EL-4 cells, untreated 1
Description: EL-4 cells (2.5×10^5 cells/ml) were incubated for 72 h with 0 μM (control), 53 μM of SEQ ID NO:3 or 53 μM of SEQ ID NO:7. After incubation, both control and treated cells were washed, fixed, permeabilized and incubated with an FITC-conjugated antibody that recognizes specifically the 85 kDa fragments of cleaved PARP (BioSource, Camarillo, Calif., USA) using the conditions recommended by the manufacturer. Fluorescence associated with cleaved PARP was analyzed by flow cytometry on a FACSCalibur using the program CellQUEST (both from Becton Dickinson). The percentage of cells containing cleaved PARP in EL-4 cells treated with 53 μM final concentration of sequences is shown in Table 5.

Hs578T cells = assay: Cellular proliferation of Hs578T cells (Trypan blue exclusion count); type: cell-based, human; conditions: 53 μM; for Effect on cellular proliferation (in words): 72 hrs; for Percentage of changes in cellular proliferation compared to controls (mean ± s.d.): cultured for 3 days, + stimulation, − inhibition, three independent assays
Description: (§1) Either 20×10^3 MDA-MB-231 (MDA-231) or Hs578T cells were plated into individual wells of 24-well plates in regular culture medium (RCM) presence or absence (control) of 53 μM (final concentration) of SEQ ID NO:3, SEQ ID NO:7, 53 μM cholesteryl-TEG phosphoramidite, or corresponding control media (regular culture medium (RCM) for SEQ ID NO:3, RCM with the same amount of water as the amount added with the SEQ ID NO:7, and RCM with the same amount of acetonitrile as the amount added with cholesteryl-TEG phosphoramidite). Cells were cultured for 72 hrs, removed with trypsin and counted with an hemocytometer using the Trypan blue exclusion technique. Results of three independent assays (mean and standard deviation (s.d.) of percentage of changes compared to controls) are shown in Table 9.

EL-4 cells [2] = assay: Activation of caspase 3 in EL-4 cells (PE-antibody flow cytometry); type: cell-based, murine; conditions: 53 μM, 72 hrs; for Percentage of cells containing activated caspase-3: EL-4 cells, untreated 3
Description: EL-4 cells (2.5×10^5 cells/ml) were incubated for 72 hrs with 0 μM (control), 53 μM of SEQ ID NO:3 or 53 μM of SEQ ID NO:7. After incubation, both control and treated cells were washed, fixed, permeabilized and incubated with a Phycoerythrin (PE)-conjugated antibody that recognizes the active catalytic unit of caspase 3 (Clone: C92-605; BD Pharmingen, San Diego, Calif., USA) using the conditions recommended by the manufacturer. Fluorescence associated with active caspase 3 was analyzed by flow cytometry on a FACSCALIBUR using the program CellQUEST (both from Becton Dickinson, San Jose, Calif., USA).

MCF-7 cells = assay: Treatment of pre-formed 3-dimensional MCF-7 structures on MATRIGEL; type: cell-based, human; conditions: MCF-7, 53 μM, repeated every 3-4 days up to 19-20 days, FIG. 3
Description: MCF-7 cells were cultured in regular culture medium (RCM), trypsinized and counted. 150×10^3 of MCF-7 cells, in wells of 24-well plates coated with 350 μl of MATRIGEL®. After the formation of 3-dimensional structures during 48 hrs without any treatment, the medium was changed and the structures were exposed to a final concentration of 53 μM of SEQ ID NO:3, 53 μM of SEQ ID NO:7, 53 μM of cholesteryl-TEG phosphoramidite, RCM or their respective control media (RCM with water, RCM with DMSO, or RCM with acetonitrile). The treatments were repeated every 3-4 days until a maximum time in culture of 19-20 days. The experiment was repeated three times. Digital photographs of the cells in the 24-well plates were taken using a Nikon Coolpix 990 digital camera connected to a Nikon inverted microscope model TMS.

HIG-82 cells = assay: HIG-82 synovial cell proliferation (MTT reduction); type: cell-based, rabbit; conditions: 53 μM, 48 hours; for Inhibition of HIG-82 cell proliferation, inhibition (%): MTT
How it was run: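 Adherent synovial cells at 10×10^5 cells/ml exposed 48 h to […] at 53 μM final. Proliferation measured by MTT reduction read at 570 nm and expressed as percentage inhibition.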

[3] = test system: MDA-MB-231 (MDA-231) cells; assay: Cellular proliferation of MDA-231 cells (Trypan blue exclusion count); type: cell-based, human; conditions: MDA-231, 53 μM; for Effect on cellular proliferation (in words): 72 hrs; for Percentage of changes in cellular proliferation compared to controls (mean ± s.d.): cultured for 3 days, + stimulation, − inhibition, three independent assays
Description: as §1

[4] = test system: MDA-MB-231 (MDA-231) cells; assay: Treatment of pre-formed 3-dimensional MDA-231 structures on MATRIGEL; type: cell-based, human; conditions: MDA-231, 53 μM, repeated every 3-4 days up to 17-21 days, FIG. 4
Description: The MDA-MB-231 (MDA-231) cells were cultured in regular culture medium, trypsinized and counted. 100×10^3 of MDA-231 cells were plated in regular culture medium (RCM), in wells of 24-well plates coated with 350 μl of MATRIGEL®. After the formation of 3-dimensional structures during 48 hrs without any treatment, the medium was changed, and structures were exposed to a final concentration of 53 μM of SEQ ID NO:3, 53 μM of SEQ ID NO:7, 53 μM of cholesteryl-TEG phosphoramidite, RCM, or their respective control media (RCM with water, RCM with DMSO or RCM with acetonitrile). The treatments were repeated every 3-4 days until a maximum time in culture of 17-21 days. The experiment was repeated three times. Digital photographs of the cells in the 24-well plates were taken using a Nikon Coolpix 990 digital camera connected to a Nikon inverted microscope model TMS.

Substance | Cleavage of PARP in EL-4 cells (in words) (EL-4 cells [1]) | Percentage of cells containing cleaved PARP (EL-4 cells [1]) [%] | Effect on cellular proliferation (in words) (Hs578T cells) | Percentage of changes in cellular proliferation compared to controls (mean ± s.d.) (Hs578T cells) [%] | Activation of caspase-3 in EL-4 cells (in words) (EL-4 cells [2]) | Percentage of cells containing activated caspase-3 (EL-4 cells [2]) [%] | Effect on pre-formed 3-dimensional structures on MATRIGEL (MCF-7 cells) | Inhibition of proliferation of synovial HIG-82 cells (in words) (HIG-82 cells) | Inhibition of HIG-82 cell proliferation, inhibition (%) (HIG-82 cells) | Effect on cellular proliferation (in words) [3] | Percentage of changes in cellular proliferation compared to controls (mean ± s.d.) [3] | Effect on pre-formed 3-dimensional structures on MATRIGEL [4]
5′ OH-CCACCC(TEG-cholesteryl) 3′ (3' {TEG-Chol}, sugars by position and backbone not given here) [SEQ ID NO:7] | capacity to induce apoptosis as measured by cleavage of PARP | 84 | capacity to inhibit cellular proliferation | −91.8 ± 10.5 | capacity to induce apoptosis as measured by the activation of caspase-3 | 38 | disrupted the growth pattern of the structures | capacity to inhibit the cellular proliferation | 53 | capacity to inhibit cellular proliferation | −97.9 ± 2.5% | disrupted the growth pattern of the structures
5′ OH-CCACCC-OH 3′ (listed as DNA, chemistry not fully specified) [SEQ ID NO:3] | inactive | 1 | did not significantly affect cellular proliferation | −6.5 ± 5 | inactive | 4 | did not affect the 3-dimensional structures | did not inhibit proliferation | 0 | did not significantly affect cellular proliferation | +6.9 ± 5% | did not affect the 3-dimensional structures
